The record followed here is ChEMBL document CHEMBL1201862, “PubChem BioAssay data set” (2004).

SMILES strings stand for the structures.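 All cell lines were grown in 96-well plates and treated with compound for 48 hours. Abbreviation: GI50, concentration required for 50% inhibition of growth.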 Activity calls are given as the source filed them. Rule as the data show it: active = GI50 up to about 1.1 µM and inactive = higher.

Some test systems named below: OVCAR-4; SR; CCRF-CEM; SK-OV-3; LOX IMVI; A549; Malme-3M; NCI-H460; ACHN; SNB-75; HL-60; MOLT-4; UACC-257; RPMI-8226; EKVX; UACC-62; SK-MEL-5; K562; U-251; HCT-15.
What all share (assay): NCI-60 cell line screen, 48 h

On to `CCOC(=O)/C(=C/c1ccc[nH]1)P(=O)(OCC)OCC`, for which the GI50 with OVCAR-4, in the experiment on SR, in the experiment with CCRF-CEM, in the experiment with SK-OV-3, with LOX IMVI and in the experiment on A549 was > 100 µM (inactive) throughout. Also, the GI50 with Malme-3M is > 100 µM (inactive); in the experiment on NCI-H460, > 100 µM (inactive); with ACHN, > 100 µM (inactive); with SNB-75 it was 77.6 µM (inactive); in the experiment with HL-60, > 100 µM (inactive); with MOLT-4, > 100 µM (inactive). The GI50 in the experiment with UACC-257, with RPMI-8226, in the experiment with EKVX, in the experiment with UACC-62, in the experiment with SK-MEL-5 and with K562 was > 100 µM (inactive) throughout. In the experiment on U-251, the GI50 was > 100 µM (inactive).
`Cc1ccc(S(=O)(=O)NC(=O)NC(CCCCNC(=N)N)C(=O)O)cc1` (stereo not given): the GI50 in the experiment on OVCAR-4, with SR, in the experiment with CCRF-CEM, with SK-OV-3, in the experiment on LOX IMVI and with A549 was > 100 µM (inactive) throughout. The GI50 in the experiment on Malme-3M was > 100 µM (inactive); in the experiment on HCT-15, above 100 µM; with NCI-H460, > 100 µM (inactive); in the experiment with ACHN, > 100 µM (inactive); in the experiment with SNB-75, > 100 µM (inactive); in the experiment with HL-60, > 100 µM (inactive). Further, the GI50 in the experiment with MOLT-4, in the experiment on UACC-257, with RPMI-8226, with UACC-62, in the experiment on SK-MEL-5 and with K562 was > 100 µM (inactive) in each case. Moreover, the GI50 in the experiment on U-251 was > 100 µM (inactive).
As to `O=C1NC2OCC(O)C(O1)C2O` (stereo not given), the GI50 in the experiment on OVCAR-4, in the experiment on SR, in the experiment with CCRF-CEM, in the experiment on SK-OV-3, in the experiment on LOX IMVI and in the experiment on Malme-3M was > 100 µM (inactive) throughout. Further, the GI50 in the experiment with HCT-15 is above 100 µM; in the experiment with NCI-H460, > 100 µM (inactive); with ACHN it was > 100 µM (inactive); in the experiment with SNB-75, > 100 µM (inactive); in the experiment on HL-60 it was > 100 µM (inactive); in the experiment on MOLT-4 it was > 100 µM (inactive). The GI50 in the experiment with UACC-257, in the experiment on RPMI-8226, in the experiment on EKVX, with UACC-62, with SK-MEL-5 and in the experiment with K562 was > 100 µM (inactive) each time. Further, in the experiment on U-251, the GI50 is > 100 µM (inactive).
In the case of `CN(C)CC1CCCC1=O` (stereo not given), the GI50 in the experiment on OVCAR-4 was 1.97 µM (inactive); in the experiment on SR it was 0.0479 µM (active); in the experiment with CCRF-CEM, 0.138 µM (active); with SK-OV-3 it was 15.3 µM (inactive); in the experiment on LOX IMVI, 1.57 µM (inactive); in the experiment with A549, 24 µM (inactive). In addition, the GI50 was 1.02 µM (active) with Malme-3M; 0.378 µM in the experiment with HCT-15; 10.5 µM (inactive) in the experiment on NCI-H460; 3.03 µM (inactive) in the experiment on ACHN; 3.78 µM (inactive) in the experiment with SNB-75; 0.084 µM (active) with HL-60. Moreover, the GI50 in the experiment with MOLT-4 is 0.144 µM (active); in the experiment with UACC-257, 1.5 µM (inactive); in the experiment with RPMI-8226 it was 0.0502 µM (active); with EKVX, 1.71 µM (inactive); in the experiment with UACC-62, 4.37 µM (inactive); in the experiment on SK-MEL-5 it was 2.86 µM (inactive). Further, the GI50 in the experiment on K562 was 0.0632 µM (active); in the experiment with U-251, 6.82 µM (inactive).
`N#Cc1sc2c(c1OC(=O)c1ccc(Cl)cc1)c(=O)n(-c1ccccc1)c(=S)n2-c1ccccc1`: the GI50 in the experiment on OVCAR-4 is 23.3 µM (inactive); with SR, 19.1 µM (inactive); in the experiment with CCRF-CEM, 4.37 µM (inactive); with SK-OV-3 it was 29.9 µM (inactive); with LOX IMVI, 17.1 µM (inactive); in the experiment with A549, 31.4 µM (inactive). For the same molecule, the GI50 is 20.4 µM (inactive) with Malme-3M; 15.8 µM in the experiment on HCT-15; 16.4 µM (inactive) with NCI-H460; 28.4 µM (inactive) in the experiment on ACHN; 40.8 µM (inactive) in the experiment with SNB-75; 19.4 µM (inactive) with HL-60. Also, the GI50 in the experiment on MOLT-4 was 42.3 µM (inactive); with UACC-257, 27.3 µM (inactive); in the experiment on RPMI-8226, 17.7 µM (inactive); with EKVX, 21 µM (inactive); in the experiment on UACC-62 it was 18.2 µM (inactive); in the experiment with SK-MEL-5, 17.1 µM (inactive). Also, the figures for the GI50 in the experiment on K562 and with U-251 were 22 µM (inactive) and 11.1 µM (inactive), respectively.
On to `CN1CN(c2ccccc2)C2(CCN(CCCC(=O)c3cccs3)CC2)C1=O`, for which the GI50 was 53.5 µM (inactive) in the experiment on SR; 30.3 µM (inactive) with CCRF-CEM; 38.4 µM (inactive) with SK-OV-3; 47.1 µM (inactive) in the experiment with LOX IMVI; 29.3 µM (inactive) in the experiment with A549; 54.1 µM (inactive) in the experiment on Malme-3M. Further, the GI50 in the experiment with HCT-15 is 34.7 µM; in the experiment with ACHN, 40.2 µM (inactive); in the experiment with SNB-75 it was > 100 µM (inactive); with HL-60 it was 52.8 µM (inactive); in the experiment on MOLT-4, 32.8 µM (inactive); with UACC-257, 29 µM (inactive). The GI50 was 29.8 µM (inactive) in the experiment on RPMI-8226; 31.5 µM (inactive) in the experiment with EKVX; > 100 µM (inactive) in the experiment on UACC-62; 22.9 µM (inactive) in the experiment on SK-MEL-5; 38.5 µM (inactive) in the experiment with K562; 45.7 µM (inactive) in the experiment on U-251.
As to `CC(C)(CN1CCCCC1)C(=O)/C=C/c1c(Cl)cccc1Cl`, the GI50 in the experiment with OVCAR-4 is 1.73 µM (inactive); with SR, 0.42 µM (active); in the experiment with CCRF-CEM, 0.52 µM (active); with SK-OV-3, 2.49 µM (inactive); in the experiment with LOX IMVI, 0.811 µM (active); with A549, 1.95 µM (inactive). The GI50 in the experiment with Malme-3M was 0.489 µM (active); in the experiment with HCT-15, 0.879 µM; with NCI-H460, 1.61 µM (inactive); in the experiment with ACHN it was 1.49 µM (inactive); in the experiment with SNB-75, 0.735 µM (active); with HL-60, 1.61 µM (inactive). Moreover, the GI50 was 0.918 µM (active) in the experiment on MOLT-4; 2 µM (inactive) with UACC-257; 3.89 µM (inactive) with RPMI-8226; 0.834 µM (active) in the experiment on EKVX; 1.29 µM (inactive) with UACC-62; 1.42 µM (inactive) in the experiment on SK-MEL-5. The GI50 is 0.736 µM (active) with K562 and 1.38 µM (inactive) in the experiment on U-251.
Turning to `CC1(c2nc3ccccc3[nH]2)CCC(C#N)C(C)(C)O1` (stereo not given), the GI50 with OVCAR-4, in the experiment on SR, in the experiment on CCRF-CEM, with SK-OV-3, in the experiment with LOX IMVI and with A549 was > 100 µM (inactive) in each case. Besides, the GI50 in the experiment on Malme-3M was > 100 µM (inactive); in the experiment on HCT-15, above 100 µM; with ACHN, > 100 µM (inactive); in the experiment on SNB-75, > 100 µM (inactive); in the experiment on HL-60, > 100 µM (inactive); in the experiment with MOLT-4, > 100 µM (inactive). Also, the GI50 in the experiment on UACC-257, with RPMI-8226, with EKVX, in the experiment with UACC-62, with SK-MEL-5 and with K562 was > 100 µM (inactive) throughout. Besides, in the experiment with U-251, the GI50 was > 100 µM (inactive).
As for `CCN(CCO)C(=O)C1(c2ccccc2)CCCCC1`, the GI50 with OVCAR-4, in the experiment with SR, with CCRF-CEM, in the experiment with SK-OV-3, in the experiment on LOX IMVI and in the experiment with A549 was > 10 µM (inactive) in each case. Moreover, the GI50 was > 10 µM (inactive) in the experiment with Malme-3M; above 10 µM with HCT-15; > 10 µM (inactive) in the experiment on NCI-H460; > 10 µM (inactive) in the experiment on ACHN; > 10 µM (inactive) in the experiment on SNB-75; > 10 µM (inactive) in the experiment on HL-60. Besides, the GI50 with MOLT-4, with RPMI-8226, with EKVX, in the experiment on UACC-62, in the experiment with SK-MEL-5 and in the experiment on K562 was > 10 µM (inactive) in each case. Moreover, the GI50 with U-251 is > 10 µM (inactive).
Regarding `CCCCCCc1cc2cc(C(=O)Nc3nc(C45CC6CC(CC(C6)C4)C5)cs3)c(=O)oc2cc1O`, the GI50 was 11.1 µM (inactive) in the experiment on OVCAR-4; 5.6 µM (inactive) in the experiment with SR; 6.78 µM (inactive) in the experiment on CCRF-CEM; 20.3 µM (inactive) in the experiment with SK-OV-3; 11.2 µM (inactive) in the experiment with LOX IMVI; 17.7 µM (inactive) with A549. Further, the GI50 was 19.7 µM (inactive) with Malme-3M; 3.85 µM in the experiment with HCT-15; 5.16 µM (inactive) in the experiment with NCI-H460; 4.43 µM (inactive) in the experiment with ACHN; 7.62 µM (inactive) in the experiment with SNB-75; 5.18 µM (inactive) in the experiment on HL-60. Also, the GI50 in the experiment on MOLT-4 was 15.1 µM (inactive); in the experiment with UACC-257 it was 24.6 µM (inactive); with RPMI-8226, 11.2 µM (inactive); with EKVX, 17.9 µM (inactive); with UACC-62, 4.65 µM (inactive); in the experiment with SK-MEL-5, 11.9 µM (inactive). Moreover, the GI50 is 2.31 µM (inactive) in the experiment with K562 and 11.6 µM (inactive) in the experiment with U-251.
Consider `CCCOC1OC(CS(=O)(=O)O)C(O)C(O)C1O` (stereo not given), for which the GI50 with OVCAR-4, in the experiment on SR, in the experiment on CCRF-CEM, in the experiment on SK-OV-3, in the experiment on LOX IMVI and in the experiment on Malme-3M was > 100 µM (inactive) throughout. The GI50 was above 100 µM with HCT-15; > 100 µM (inactive) with NCI-H460; > 100 µM (inactive) in the experiment on SNB-75; > 100 µM (inactive) in the experiment on HL-60; > 100 µM (inactive) with MOLT-4; > 100 µM (inactive) in the experiment on UACC-257. Moreover, the GI50 in the experiment with RPMI-8226, with UACC-62, with SK-MEL-5, with K562 and in the experiment on U-251 was > 100 µM (inactive) in each case.
